The record followed here is BindingDB's records for patent US20250346585 (Alexion Pharmaceuticals, 2025).

The term IC50 denotes the point on the concentration scale where inhibition reaches its midpoint. Lower therefore signals greater potency in that assay.

The target of this assay is T1, Complement C1s subcomponent (Homo sapiens, UniProt P09871).
T1 sequence (P09871 whole entry): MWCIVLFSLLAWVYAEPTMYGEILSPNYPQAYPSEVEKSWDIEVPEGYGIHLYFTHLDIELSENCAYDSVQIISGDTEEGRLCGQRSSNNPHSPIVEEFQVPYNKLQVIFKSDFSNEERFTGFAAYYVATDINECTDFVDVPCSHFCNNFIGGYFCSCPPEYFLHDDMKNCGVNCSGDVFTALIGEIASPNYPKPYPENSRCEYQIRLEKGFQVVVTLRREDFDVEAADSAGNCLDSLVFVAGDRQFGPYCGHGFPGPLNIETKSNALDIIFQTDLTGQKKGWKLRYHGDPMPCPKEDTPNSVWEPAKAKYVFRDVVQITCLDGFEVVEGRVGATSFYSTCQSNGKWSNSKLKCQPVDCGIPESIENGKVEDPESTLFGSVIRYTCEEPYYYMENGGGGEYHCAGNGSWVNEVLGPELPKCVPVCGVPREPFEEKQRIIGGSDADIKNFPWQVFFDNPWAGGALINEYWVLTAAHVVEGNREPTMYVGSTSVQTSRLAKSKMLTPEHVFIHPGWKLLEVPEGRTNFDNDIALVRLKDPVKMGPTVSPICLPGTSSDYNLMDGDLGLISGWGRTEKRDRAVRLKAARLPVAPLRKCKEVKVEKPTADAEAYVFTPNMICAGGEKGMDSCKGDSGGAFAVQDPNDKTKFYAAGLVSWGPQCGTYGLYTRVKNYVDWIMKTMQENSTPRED
Description: Human C1s Enzyme Assay. On the procedure: Human complement C1s enzyme (purified from human serum, Complement Technology, Inc.) at 1.16 nM final concentration was incubated with test compound at various concentrations for 5 min at room temperature in 50 mM Tris, 1 M NaCl, pH 7.5. A synthetic substrate Z-L-Lys-SBzl and DTNB (Ellman's reagent) were added to final concentrations of 100 μM each. Absorbance at 405 nm (A405) was recorded at 30 second intervals for 30 min using a microplate spectrophotometer. IC50 values were calculated by nonlinear regression of complement C1s reaction rates as a function of test compound concentration.

`N=C(N)c1cc(CNC(=O)[C@@H]2CC3(CN2C(=O)CNC(=O)c2ccc(-c4ccccc4)cn2)OCCO3)cs1` [US20250346585, Compound 144] returned an IC50 of less than 100 nM.
Next, `O=C(NCC(=O)N1CC2(C[C@H]1C(=O)NCc1cc(N3CCCC3=O)cs1)OCCO2)c1ccc(Oc2ccc(F)cc2)cc1` [US20250346585, Compound 290]: greater than 1000 nM.
With `CC(=O)NCCNC[C@@]12C[C@@H]1N(C(=O)CNC(=O)c1ccc3c(c1)-c1ccccc1C3(F)F)[C@H](C(=O)N[C@H](C)c1cc(C(=N)N)cs1)C2` [US20250346585, Compound 315] the figure was less than 100 nM; with `C[C@@H](NC(=O)[C@@H]1C[C@@H](S(C)(=O)=O)CN1C(=O)CNC(=O)c1ccc2sc3ccccc3c2c1)c1cc(C(=N)N)cs1` [US20250346585, Compound 332], less than 100 nM; with `C[C@@H](NC(=O)[C@H]1C[C@]2(CC(F)(F)F)C[C@@H]2N1C(=O)CNC(=O)c1ccc2c(c1)-c1ccccc1C2(F)F)c1cc(C(=N)N)cs1` [US20250346585, Compound 410], greater than 1000 nM.
The compound `C[C@@H](NC(=O)[C@@H]1C[C@]2(CC(F)(F)F)C[C@@H]2N1C(=O)CNC(=O)c1ccc2c(c1)-c1ccccc1C2(F)F)c1cc(C(=N)N)cs1` [US20250346585, Compound 411] showed an IC50 greater than 1000 nM.
